Measured values from patent US8207357B2, “Rotaxane compound and antitumor agent” (Wan Station Co., Ltd., priority 2008, dated 2012).

What was measured:
[1] = system: human malignant melanoma-derived cell line G361; assay: Antitumor activity, viable cell count (Tetra Color ONE, absorbance 450 nm) in G361; format: cell-based; settings: G361, at every rotaxane concentrations, FIG. 2
Method: (§1) As tumor cells, mouse colon tumor cell-derived cell line Colon-26, human glioblastoma-derived cell line T98G, and human malignant melanoma-derived cell line G361 were used. The tumor cells of each cell line were cultured in RPMI 1640 containing 10% FBS and 0.5% penicillin-streptomycin, as the base medium, in the presence of 5% CO2, at 37° C., under humidity conditions. The tumor cells (5.0×10^4) of each cell line having been cultured to a sufficiently confluent state were seeded in a 1.5 mL tube together with the medium. Each of the rotaxane compounds was dissolved in DMSO as a vehicle (solvent) and was added to the tube in a predetermined concentration so that the total amount is 1000 μL. Then, 100 μL of this was dispensed to each well of a 96-well microplate and was incubated in a CO2 incubator for 24 hours. Subsequently, 10 μL of a viable-cell-counting reagent (Tetra Color ONE, a product of Seikagaku Corporation) was added to each well of the 96-well microplate, and a reaction was performed in the CO2 incubator for 2 hours. The ultraviolet absorbance at 450 nm (control wavelength: 620 nm) was measured […] the reaction with a microplate reader. Note that the higher absorbance means the lager number of viable cells.
The antitumor activity of TRO-A0010 was verified using T98G and G361 as tumor cells as in the above (5-1).

[2] = system: mouse colon tumor cell-derived cell line Colon-26; assay: Antitumor activity, viable cell count (Tetra Color ONE, absorbance 450 nm) in Colon-26; format: cell-based; settings: Colon-26, 1.25 μM, compared with Control, FIG. 1
Method: as §1
The antitumor activities of TRO-A0014 and TRO-A0015 were verified using Colon-26 as tumor cells as in the method of (5-1) described above. […]

| Substance | cell growth-inhibiting effect compared with TRO-A0001 [1] | cell growth-inhibiting effect at a concentration of 1.25 μM [2] |
| --- | --- | --- |
| [2][bis(3,5-dimethylphenylcarboxypentyl)ammonium-rotaxa-[2,5,8,11,13,16,19,22-octaoxa-1,12(1,2)-dibenzenacyclodocosaphane]]trifluoromethanesulfonate [TRO-A0010] | higher than that of TRO-A0001 | – |
| [2][(3,5-dimethylphenylcarboxyethyl)(3,5-dimethylphenylcarboxypropyl) ammonium-rotaxa-[2,5,8,11,13,16,19,22-octaoxa-1,12(1,2)-dibenzenacyclodocosaphane]] trifluoromethanesulfonate [TRO-A0014] | – | obviously observed |
